{
  "source": "patent US20210009673A1",
  "about": "“METHODS FOR REGULATING BREAST CANCERS” (priority 2018, published 2021)",
  "key": {"Akt": {"tested_on": "Akt", "assay": "phosphorylation of Akt in PTN-stimulated HUVS cells", "type": "cell-based, human", "conditions": "cells preincubated with EGFR inhibitor; PTN 2-20 minutes", "description": "FIG. 11: FIG. 11 illustrates: human umbilical vein stromal cells not stimulated or stimulated with 50 ng/ml of PTN for 2, 5, 10 or 20 minutes were used to prepare cell lysates that were analyzed in Western blots probed with anti-phospho threonine 308 Akt (panel A), anti-phospho serine 473 Akt (panel B), anti-phospho-serine 9 GSK3β (panel C), anti-phospho-serine 33, 37 and […] β-catenin (panel D) or anti-actin antibodies (panel E). Akt was immunoprecipitated from those lysates using anti-Akt antibodies, incubated with a fusion peptide containing the 20 N-terminal amino acids of GSK3β and analyzed in Western-blots probed using anti-phospho-serine 9 GSK3β antibodies (panel F).\nTo pursue this pathway of nuclear import of β-catenin, HUVS cells were stimulated with PTN (50 ng/ml), lysed, and analyzed in Western blots probed with anti-phosphothreonine 308 Akt or anti-phosphoserine 473 Akt antibodies (FIG. 11, panel A and B). […]\nThe association of adaptor proteins that associate with specific phosphorylated sites in activated EGFR are responsible for the activation of phosphatidyl-inositol 3-kinase (PI3K). […] The cells were stimulated with PTN for 2, 5, 10, and 20 minutes, cell lysates were prepared, and the lysates were analyzed in Western blots probed with anti-phospho-Akt (Ser473), anti-phospho-GSKβ (Ser9), and anti-phospho-β-catenin (Thr42) antibodies. […]"}, "T47D cells": {"tested_on": "T47D cells", "assay": "growth of T47D breast cancer cells in culture (viable cell count)", "type": "cell-based, human", "description": "(§1) FIG. 22: FIG. 22 illustrates: in (A), the c-met/ALK dual inhibitor PF2341066 blocks growth of MDA-MB-231 cells. MDA-MB-231 breast cancer cells were treated with 1 nM, 10 nM, 100 nM, and 1 μM PF2341066, the number of viable cells was counted for ten days, and represented as average with standard deviation. In (B), The c-met/ALK dual inhibitor PF2341066 blocks growth of T47D cells. T47D breast cancer cells were treated with 1 nM, 10 nM, 100 nM, and 1 μM PF2341066, the number of viable cells was counted for ten days, and represented as average with standard deviation. In (C), The ALK inhibitor PF2341066 delays MDA-MB-231 cell growth as tumors in flanks of nude mice. MDA-MB-231 cells were injected in flanks of nude mice. The mice were divided in two groups, which were given 50 mg/kg PF2341066 daily by oral gavage or an equal volume of DMSO as control. Tumor size was measured daily and is represented as average tumor burden in each group.\n(§2) The MDA-MB-231 (FIG. 22A) and T47D (FIG. 22B) cells were then treated with the ALK inhibitor PF2341066.\n(§3) MDA-MB-231, MCF-7, and T47D cells were obtained from American Tissue Collection Center (ATCC) and grown in DMEM supplemented with 10% fetal bovine serum (FBS) and 1% penicillin/streptomycin at 37° C. in a 5% CO2 atmosphere. […]"}, "MDA-MB-231 cells": {"tested_on": "MDA-MB-231 cells", "assay": "growth of MDA-MB-231 breast cancer cells in culture (viable cell count)", "type": "cell-based, human", "description": "as §1, §2, §3"}, "[1]": {"tested_on": "MDA-MB-231 cell xenograft", "assay": "MDA-MB-231 xenograft growth in flanks of nude mice", "type": "in vivo", "conditions": "50 mg/kg daily oral gavage", "description": "as §1, with “group. […]” for “group.”\nMale athymic nude mice (8 weeks old, Cby.Cg-Foxn1nu) were used. […] The sites of injection were observed daily for tumor growth beginning 1 day after injection and tumor length (L) and width (W) were measured, and tumor volume was estimate using the formula (LXW2)/2."}, "β-catenin [2]": {"tested_on": "β-catenin", "assay": "tyrosine phosphorylation of β-catenin in PTN-stimulated U87MG cells", "type": "cell-based, human", "conditions": "U87MG cells preincubated with inhibitor; 50 ng PTN/ml", "description": "FIG. 1: FIG. 1 illustrates in (A) PTN stimulation of tyrosine phosphorylation of β-catenin in cells that express RPTPβ/ζ and ALK. COS7 cells transiently expressing ALK and RPTPβ/ζ were stimulated with 10 ng PTN/ml. Cell lysates were prepared and used to immunoprecipitate β-catenin. The immunoprecipitates were analyzed in Western blots probed with anti-phosphotyrosine antibodies. Lane 1, cells transfected with ALK that were not stimulated with PTN. Lane 2, cells transfected with ALK stimulated with PTN. Lane 3, cells transfected with empty vector not stimulated with PTN. Lane 4, cells transfected with empty vector stimulated with PTN. […] The immunoprecipitates were analyzed in Western blots probed with anti-phosphotyrosine antibodies. […] Cell lysates were used to immunoprecipitate β-catenin and the immunoprecipitates were analyzed in Western blots probed with anti-phospho-tyrosine antibodies and reprobed with anti-β-catenin antibodies. […] MCF-7 cells that stably express EGFR/RPTPβ/ζ not transfected with ALK were analyzed as above. […] Lysates of MCF-7 cells and lysates of MCF-7 cells stimulated with EGF were used to immunoprecipitate β-catenin and the immunoprecipitates were analyzed in Western blots probed with anti-phospho-tyrosine antibodies and separately with anti-β-catenin antibodies. […]"}, "β-catenin [3]": {"tested_on": "β-catenin", "assay": "ubiquitination of β-catenin in HUVS cells (Rad23 capture)", "type": "cell-based, human", "conditions": "PTN-stimulated cells pre-incubated with proteasome inhibitor", "description": "FIG. 12: FIG. 12 illustrates: human umbilical vein stromal cells not stimulated (lane 1) or stimulated with 50 ng/ml of PTN for 15 (lane 2), or 30 minutes (lane 3) were used to prepare cell lysates that were incubated with Rad23-conjugated agarose beads to pull-down ubiquitinated proteins and analyzed in Western-blots probed with anti-β-catenin antibodies (upper panel) and reprobed with anti-ubiquitin antibodies (lower panel). Cells pre-incubated with LY294002 were stimulated with PTN for 15 minutes (lane 4). Cells pre-incubated with lactacystin were stimulated with PTN for 15 minutes (lane 5).\nHuman umbilical vein stromal cells were lysed in a buffer prepared with 50 mM Tris, pH 7.2, 150 mM NaCl pH 7.5, 1% NP40, 0.25% sodium deoxicholate, Complete EDTA-free Protease Inhibitor Cocktail and 2 mM sodium orthovanadate. […] The beads were washed 4 times with lysis buffer and analyzed using Western blots.\nβ-catenin is rapidly degraded through the ubiquitin proteasome proteolytic pathway, thereby setting steady state levels of β-catenin by balancing its degradation with new synthesis of this key regulatory protein. […] Proteins captured with Rad23 Sepharose were eluted and analyzed in Western blots probed with anti-β-catenin antibodies (FIG. 12, upper panel) and the blots were reprobed with anti-ubiquitin antibodies (FIG. 12, lower panel). […]"}, "β-catenin [4]": {"tested_on": "β-catenin", "assay": "tyrosine phosphorylation of β-catenin in MCF-7-EGFR/RPTPβ/ζ cells expressing ALK", "type": "cell-based", "description": "FIG. 1: FIG. 1 illustrates in (A) PTN stimulation of tyrosine phosphorylation of β-catenin in cells that express RPTPβ/ζ and ALK. COS7 cells transiently expressing ALK and RPTPβ/ζ were stimulated with 10 ng PTN/ml. Cell lysates were prepared and used to immunoprecipitate β-catenin. The immunoprecipitates were analyzed in Western blots probed with anti-phosphotyrosine antibodies. Lane 1, cells transfected with ALK that were not stimulated with PTN. Lane 2, cells transfected with ALK stimulated with PTN. Lane 3, cells transfected with empty vector not stimulated with PTN. Lane 4, cells transfected with empty vector stimulated with PTN. In (B), ALK and RPTPβ/ζ, but not Src, are necessary for PTN to stimulate tyrosine phosphorylation of activation of β-catenin. U87MG cells and U87MG cells that had been transfected with an shRNA targeting either RPTPβ/ζ or ALK or preincubated with the src inhibitor PP2 were stimulated with 50 ng PTN/ml or not (control) and cell lysates used to immunoprecipitate β-catenin. The immunoprecipitates were analyzed in Western blots probed with anti-phosphotyrosine antibodies. […] Cell lysates were used to immunoprecipitate β-catenin and the immunoprecipitates were analyzed in Western blots probed with anti-phospho-tyrosine antibodies and reprobed with anti-β-catenin antibodies. […] MCF-7 cells that stably express EGFR/RPTPβ/ζ not transfected with ALK were analyzed as above. […] Lysates of MCF-7 cells and lysates of MCF-7 cells stimulated with EGF were used to immunoprecipitate β-catenin and the immunoprecipitates were analyzed in Western blots probed with anti-phospho-tyrosine antibodies and separately with anti-β-catenin antibodies. Lysates of MCF-7 cells transfected with ALK and stimulated with PTN, EGF or pervanadate were immunoprecipitated with anti-β-catenin antibodies and the immunoprecipitates were analyzed in Western blots probed with anti-phospho-tyrosine antibodies and separately with anti-β-catenin antibodies. […]"}, "ALK": {"tested_on": "ALK", "assay": "tyrosine phosphorylation of ALK in MCF-7-EGFR/RPTPβ/ζ cells", "type": "cell-based", "conditions": "EGF at 1 minute and at 5 minutes"}},
  "data": [
    {"compound": "COc1cc2ncnc(Nc3cccc(Cl)c3)c2cc1OC", "note": "[AG1478, reference compound]", "values": [
      {"measurement": "PTN-stimulated activation of Akt (phospho-Akt serine 473)", "setting": "Akt", "value": "effectively prevented"}
    ]},
    {"compound": "C[C@@H](Oc1cc(-c2cnn(C3CCNCC3)c2)cnc1N)c1c(Cl)ccc(F)c1Cl", "note": "[PF2341066]", "values": [
      {"measurement": "proliferation of T47D cells", "setting": "T47D cells; 1 nM-1 μM, ten days", "value": "dose-dependent block in proliferation"},
      {"measurement": "reduction of T47D cell growth", "setting": "T47D cells; 1 μM", "value": "about 13 fold"},
      {"measurement": "proliferation of MDA-MB-231 cells", "setting": "MDA-MB-231 cells; 1 nM-1 μM, ten days", "value": "dose-dependent block in proliferation"},
      {"measurement": "growth of MDA-MB-231 cells", "setting": "MDA-MB-231 cells; 1 μM", "value": "effectively prevented growth"},
      {"measurement": "reduction of tumor burden", "setting": "[1]; day 22", "value": "about 3.5 fold"},
      {"measurement": "reduction of tumor burden", "setting": "[1]; end of the experiment", "value": "about 3 fold"}
    ]},
    {"compound": "CC(C)(C)n1nc(-c2ccc(Cl)cc2)c2c(N)ncnc21", "note": "[PP2, reference compound]", "values": [
      {"measurement": "inhibition of PTN-stimulated tyrosine phosphorylation of β-catenin", "setting": "β-catenin [2]", "value": "failed to inhibit"}
    ]},
    {"compound": "CC(=O)N[C@@H](CSC(=O)[C@]1([C@@H](O)C(C)C)NC(=O)[C@H](C)[C@@H]1O)C(=O)O", "note": "[lactacystin, reference compound]", "values": [
      {"measurement": "ubiquitinated β-catenin levels", "setting": "β-catenin [3]", "value": "remained at the level in HUVS cells not stimulated with PTN"}
    ]},
    {"compound": "epidermal growth factor [EGF]", "values": [
      {"measurement": "increase in tyrosine phosphorylation of β-catenin", "setting": "β-catenin [4]; 1 minute after stimulation with EGF", "value": "about 11 fold"},
      {"measurement": "tyrosine phosphorylation of β-catenin", "setting": "β-catenin [4]; 5 minutes after stimulation with EGF", "value": "Even higher levels"},
      {"measurement": "tyrosine phosphorylation of ALK", "setting": "ALK", "value": "marked increase"}
    ]},
    {"compound": "sodium pervanadate [reference compound]", "values": [
      {"measurement": "increase in tyrosine phosphorylation of β-catenin", "setting": "β-catenin [4]; stimulated with sodium pervanadate", "value": "about 17 fold"}
    ]}
  ]
}
